Experimental data from patent publication US8211856B2, “Use of somatostatin-14 as a therapeutic agent” (mondoBIOTECH Laboratories AG, priority 2007, dated 2012).
No end group written: not given here.

Assays:
[1] = test system: hepatitis B virus (HBV) ayw strain; experiment: HBV experimental assay system (HepG2-2.2.15, TaqMan PCR of secreted HBV DNA); type: cell-based; details: 10 micrograms per ml; six days; HBV DNA in supernatant
[2] = test system: Human A549 cells; experiment: Apoptosis prevention assay (C2 ceramide, Annexin-5); type: cell-based; details: 10 micrograms per ml; 30 min pretreatment, then C2 ceramide
Experimental: Human A549 cells (carcinomic human alveolar basal epithelial cells) were utilized in the experiments employing the Annexin-5 apoptosis assay. […] A549 cells were pretreated for 30 min with test peptides—10 micrograms per ml—followed by the exposure to C2 ceramide.

[3] = test system: Human A549 cells; experiment: Apoptosis induction assay (Annexin-5); type: cell-based; details: 10 micrograms per ml; 24 hours
[4] = test system: Primary Human endothelial cells (HUVEC); experiment: Endothelial cell migration assay; type: cell-based; details: 10 micrograms per ml; 22 hours
[5] = test system: murine spleen cells; experiment: Th1/Th2 cytokine profiling assay (Ovalbumin-restimulated spleen cells); type: cell-based, Balb/c mice; details: 10 micrograms per ml; Ovalbumin restimulation, 72 hours
Text: The Balb/c mice (originated in 1923, it is a popular strain and is used in many different research disciplines. Also classified as an inbred from the production of 20 or more successive brother-sister matings, the Balb/c mouse is albino and small in size) were immunized on Days 1, 15, and 29 with Ovalbumin (Ovalbumin is the main protein found in egg white, commonly used to stimulate an immunological reaction in test animals) in PBS (5 micrograms/injection). On day 50, spleens of the mice were harvested (3 weeks after last boost with Ovalbumin). […] Thereafter, additional Ovalbumin was added to the cells at 10 micrograms/ml for in vitro restimulation of the cells. 72 hours later, cell supernatants were harvested and assayed using the Becton Dickinson Mouse Th1/Th2 Cytokine CBA Kit.

[6] = test system: HCMV strain AD169; experiment: HCMV plaque formation assay in MRC-5 cells; type: cell-based; details: for inhibition of HCMV plaque formation as compared to the virus control experiment: 10 micrograms per ml, 7-10 days
[7] = test system: HUVEC; experiment: Endothelial tube formation assay; type: cell-based, human; details: 10 micrograms per ml; 20 hours
Text: Positive control was vehicle only.

[8] = test system: HIV-1IIIB; experiment: HIV-1 antiviral assay in CEM-SS cells; details: HIV-1 assay

| Compound | inhibition of HBV replication as compared to the virus control infection [1] [%] | induction of apoptosis on human lung cells [3] [%] | production of IL-2, induced by [5] [%] | production of IL-4, induced by [5] | production of IL-5, decreased by [5] | production of TNF-alpha, induced by [5] | inhibition of HCMV plaque formation as compared to the virus control experiment [6] [%] | tube formation of human endothelial cells, inhibited by [7] [%] | antiviral activity of positive control compounds [8] | further results |
| --- | --- | --- | --- | --- | --- | --- | --- | --- | --- | --- |
| Ala-Gly-Cys-Lys-Asn-Phe-Phe-Trp-Lys-Thr-Phe-Thr-Ser-Cys-OH (AGCKNFFWKTFTSC-OH; ends and bridges not checked) [Peptide 1] | 14.1 | 9.4 | 102.7 | did not significantly change | did not significantly change | 27.5% | 1.8 | 9 |  | induction of apoptosis on human lung cells (ceramide-induced apoptosis) [2]: 27%; migration of human endothelial cells, inhibited by [4]: 3%; production of IFN-gamma, induced by [5]: 65.1% |
| Gly-Pro-Glu-OH [Peptide 2] | 30.7 | 1.4 | 24.0 | 52.7% | 37.2% | did not significantly change | 2.9 | 20 |  | migration of human endothelial cells, induced by [4]: 11%; production of IFN-gamma, decreased by [5]: 42.5% |
| Cc1cn([C@H]2C[C@H](N=[N+]=[N-])[C@@H](CO)O2)c(=O)[nH]c1=O [AZT] |  |  |  |  |  |  |  |  | expected levels of antiviral activity |  |
| CC(C)(C)NC(=O)[C@@H]1CN(Cc2cccnc2)CCN1C[C@@H](O)C[C@@H](Cc1ccccc1)C(=O)N[C@H]1c2ccccc2C[C@H]1O [indinavir] |  |  |  |  |  |  |  |  | expected levels of antiviral activity |  |
| Nc1nc(O)c2ncn(COC(CO)CO)c2n1 [Ganciclovir, reference compound] |  |  |  |  |  |  |  |  |  | antiviral activity of positive control compound ([6]; positive control, HCMV assay): expected levels of antiviral activity |
